Measurements reported in ChEMBL document CHEMBL5634124, “Discovery and optimization of indirubin derivatives as novel ferroptosis inducers for the treatment of colon cancer” (Eur J Med Chem, 2023).
pIC50: −log10 of the molar value. ≈ marks a conversion by molar mass, not a printed value. Calls of active or inactive are those of the source. The calls are words filed in the database; no cut-off is given here.

What was measured:
[1] = system: HCT-116; assay: Cytotoxicity against human HCT-116 cells assessed as inhibition of cell viability incubated for 48 hrs by CCK8 assay; type: functional, cell-based; conditions: HCT-116, 48 h
[2] = Kinetic solubility of compound at pH 7.4; type: physicochemical; conditions: buffer, read-out: Kinetic_solubility
[3] = Metabolic stability in human liver microsomes assessed as intrinsic clearance at 0.5 uM incubated for 45 mins by LC/MS analysis; type: ADME, Microsome; conditions: read-out: CLH
[4] = Metabolic stability in human liver microsomes assessed as hepatic clearance rate at 0.5 uM incubated for 45 mins by LC/MS analysis; type: ADME, Microsome
[5] = Metabolic stability in human liver microsomes assessed as half life at 0.5 uM incubated for 45 mins by LC/MS analysis; type: ADME, Microsome
[6] = Toxicity in BALB/c nude mouse model xenografted with human HCT-116 cells assessed as body weight loss at 25 to 50 mg/kg, ip administered 4 times a week for 3 weeks; type: organism-based; conditions: in vivo, 504 h, dose 25-50 mg/kg
[7] = Toxicity in BALB/c nude mouse model xenografted with human HCT-116 cells assessed as morphological change in spleen at 25 to 50 mg/kg, ip administered 4 times a week for 3 weeks by H and E staining based analysis; type: organism-based; conditions: in vivo, 504 h, dose 25-50 mg/kg
[8] = system: HCT-116; assay: In vivo inhibition of GPX4 in human HCT-116 cells xenografted in BALB/c nude mouse model at 25 to 50 mg/kg, ip administered 4 times a week for 3 weeks by IHC analysis; type: functional, organism-based; conditions: dose 25-50 mg/kg
[9] = system: HCT-116; assay: Cytotoxicity against human HCT-116 cells assessed as inhibition of cell viability incubated for 48 hrs in presence of 3-MA by CCK8 assay; type: functional, cell-based
[10] = biological target: T1, Phospholipid hydroperoxide glutathione peroxidase GPX4 (Homo sapiens) (UniProt P36969); assay: Inhibition of GPX4 in human HCT-116 cells at 0.5 uM by Western blot analysis; type: cell-based; conditions: time <= 48.0 hrs, TDE = time-dependent effect
T1 sequence (whole entry): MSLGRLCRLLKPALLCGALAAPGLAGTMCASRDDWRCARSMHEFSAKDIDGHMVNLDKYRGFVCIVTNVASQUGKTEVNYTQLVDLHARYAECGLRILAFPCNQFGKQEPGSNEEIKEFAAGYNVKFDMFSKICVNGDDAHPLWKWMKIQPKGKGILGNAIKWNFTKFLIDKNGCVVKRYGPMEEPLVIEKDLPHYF

[11] = biological target: T1, Phospholipid hydroperoxide glutathione peroxidase GPX4 (Homo sapiens); assay: Inhibition of GPX4 in human HCT-116 cells incubated for 24 hrs by Western blot analysis; type: cell-based; conditions: dose <= 1.0 µM
[12] = system: HCT-116; assay: Inhibition of colony formation in human HCT-116 cells treated for 48 hrs followed by replacement of growth medium without compound every other day measured after 2 weeks by crystal violet staining based assay; type: functional, cell-based; conditions: dose <= 1.0 µM
[13] = system: HCT-116; assay: Cytotoxicity against human HCT-116 cells assessed as inhibition of cell viability incubated for 48 hrs in presence of Fer-1 by CCK8 assay; type: functional, cell-based
[14] = Toxicity in BALB/c nude mouse model xenografted with human HCT-116 cells assessed as morphological change in lungs at 25 to 50 mg/kg, ip administered 4 times a week for 3 weeks by H and E staining based analysis; type: organism-based; conditions: in vivo, 504 h, dose 25-50 mg/kg
[15] = system: HCT-116; assay: Induction of ferroptosis in human HCT-116 cells assessed as increase in Fe2+ level upto 1 uM incubated for 24 hrs by flow cytometry; type: functional, cell-based
[16] = biological target: T1, Phospholipid hydroperoxide glutathione peroxidase GPX4 (Homo sapiens); assay: Inhibition of GPX4 in human HCT-116 cells assessed as increase in protein ubiquitination upto 1 uM incubated for 24 hrs by co-immunoprecipitation method; type: cell-based
[17] = system: HCT-116; assay: Cytotoxicity against human HCT-116 cells assessed as inhibition of cell viability incubated for 48 hrs in presence of NAC by CCK8 assay; type: functional, cell-based
[18] = system: HCT-116; assay: Effect on ACSL4 expression in human HCT-116 cells; type: functional, cell-based
[19] = system: HCT-116; assay: Induction of ferroptosis in human HCT-116 cells assessed as increase in intracellular lipid ROS level incubated for 24 hrs by flow cytometry; type: functional, cell-based; conditions: dose <= 1.0 µM
[20] = system: HCT-116; assay: Cytotoxicity against human HCT-116 cells assessed as inhibition of cell viability incubated for 48 hrs in presence of Nec by CCK8 assay; type: functional, cell-based
[21] = system: HCT-116; assay: Induction of ferroptosis in human HCT-116 cells assessed as decrease in GSH level upto 1 uM incubated for 24 hrs; type: functional, cell-based
[22] = system: HCT-116; assay: Antitumor activity against human HCT-116 cells xenografted in BALB/c nude mouse model assessed as tumor growth inhibition at 50 mg/kg, ip administered 4 times a week for 3 weeks relative to control; type: functional; conditions: HCT-116, 504 h, read-out: TGI
[23] = system: HCT-116; assay: Cytotoxicity against human HCT-116 cells assessed as inhibition of cell viability incubated for 48 hrs in presence of Z-VAD by CCK8 assay; type: functional, cell-based
[24] = system: HCT-116; assay: Induction of ferroptosis in human HCT-116 cells assessed as increase in intracellular lipid ROS level incubated for 24 hrs by CLSM analysis; type: functional, cell-based; conditions: dose <= 1.0 µM
[25] = biological target: T2, Phospholipid hydroperoxide glutathione peroxidase GPX4 (Homo sapiens, UniProt P36969); assay: Inhibition of GPX4 (unknown origin) incubated for 1 hr by absorbance based assay
T2 sequence (P36969 whole entry): T1 sequence (whole entry)

[26] = system: HCT-116; assay: Effect on FSP1 expression in human HCT-116 cells; type: functional, cell-based
[27] = system: HCT-116; assay: Antitumor activity against human HCT-116 cells xenografted in BALB/c nude mouse model assessed as morphological change in tumor at 25 to 50 mg/kg, ip administered 4 times a week for 3 weeks by H and E staining based analysis; type: functional, organism-based; conditions: dose 25-50 mg/kg
[28] = system: HCT-116; assay: Induction of ferroptosis in human HCT-116 cells assessed as increase in intracellular MDA level incubated for 24 hrs; type: functional, cell-based; conditions: dose <= 1.0 µM
[29] = system: HCT-116; assay: Effect on NCOA4 expression in human HCT-116 cells; type: functional, cell-based
[30] = Toxicity in BALB/c nude mouse model xenografted with human HCT-116 cells assessed as morphological change in kidney at 25 to 50 mg/kg, ip administered 4 times a week for 3 weeks by H and E staining based analysis; type: organism-based; conditions: in vivo, 504 h, dose 25-50 mg/kg
[31] = Toxicity in BALB/c nude mouse model xenografted with human HCT-116 cells assessed as morphological change in liver at 25 to 50 mg/kg, ip administered 4 times a week for 3 weeks by H and E staining based analysis; type: organism-based; conditions: in vivo, 504 h, dose 25-50 mg/kg
[32] = system: HCT-116; assay: Antitumor activity against human HCT-116 cells xenografted in BALB/c nude mouse model assessed as tumor growth inhibition at 25 mg/kg, ip administered 4 times a week for 3 weeks relative to control; type: functional; conditions: HCT-116, 504 h, read-out: TGI
[33] = Toxicity in BALB/c nude mouse model xenografted with human HCT-116 cells assessed as morphological change in heart at 25 to 50 mg/kg, ip administered 4 times a week for 3 weeks by H and E staining based analysis; type: organism-based; conditions: in vivo, 504 h, dose 25-50 mg/kg
[34] = system: HCT-116; assay: Effect on SLC7A11 expression in human HCT-116 cells; type: functional, cell-based
[35] = system: HCT-116; assay: Cytotoxicity against human HCT-116 cells assessed as inhibition of cell viability incubated for 48 hrs in presence of DFO by CCK8 assay; type: functional, cell-based

C=CC(=O)CCC(=O)c1ccc2c(c1)C(=O)/C(=C1/C(=O)Nc3ccccc31)N2 gave a pIC50 [1] of under 4.70.

In the case of C=CC(=O)CCCCCC(=O)c1ccc2c(c1)C(=O)/C(=C1/C(=O)Nc3ccccc31)N2, the pIC50 [1] was 4.88.

With O=C1Nc2ccccc2/C1=C1/Nc2ccccc2C1=O [INDIRUBIN] the solubility kinetic [2] was 4.01 µg/mL (≈ 15.3 µM), the CLint scaled at 0.5 µM [3] was 70.2 mL/min/kg and the CLhep predicted at 0.5 µM [4] was 16 mL/min/kg. For the same compound, the pIC50 [1] was 4.71 and the half-life at 0.5 µM [5] was 22.8 min.

Compound C#CC(=O)N1CCC(CCNC(=O)c2ccc3c(c2)C(=O)/C(=C2/C(=O)Nc4ccccc42)N3)CC1 has a pIC50 [1] of 5.73.

C=CC(=O)N1CCN(CCNC(=O)c2ccc3c(c2)C(=O)/C(=C2/C(=O)Nc4ccccc42)N3)CC1 showed a pIC50 [1] of 4.76.

Work on O=C1Nc2ccccc2/C1=C1/Nc2ccc(C(=O)NCCN3CCN(C(=O)CCl)CC3)cc2C1=O yielded a pIC50 [1] of 5.64.

C=CC(=O)CCCCC(=O)c1ccc2c(c1)C(=O)/C(=C1/C(=O)Nc3ccccc31)N2 showed a pIC50 [1] of 4.85.

In the case of O=C1Nc2ccccc2/C1=C1/Nc2ccc(C(=O)N3CCN(C(=O)CCl)CC3)cc2C1=O, the pIC50 [1] was 5.64.

For O=C(CCl)CCCC(=O)c1ccc2c(c1)C(=O)/C(=C1/C(=O)Nc3ccccc31)N2, the pIC50 [1] was 5.40.

In the case of O=C(CCl)CCCCC(=O)c1ccc2c(c1)C(=O)/C(=C1/C(=O)Nc3ccccc31)N2, the pIC50 [1] was 5.76.

C#CC(=O)N1CCN(CCNC(=O)c2ccc3c(c2)C(=O)/C(=C2/C(=O)Nc4ccccc42)N3)CC1 gave a pIC50 [1] of 5.20.

For C#CC(=O)CCCCC(=O)c1ccc2c(c1)C(=O)/C(=C1/C(=O)Nc3ccccc31)N2, the pIC50 [1] was 5.52.

With O=C1Nc2ccccc2/C1=C1/Nc2ccc(C(=O)NCCC3CCN(C(=O)CCl)CC3)cc2C1=O the pIC50 [1] was 6.14.

Compound C#CC(=O)N1CCN(C(=O)c2ccc3c(c2)C(=O)/C(=C2/C(=O)Nc4ccccc42)N3)CC1 has a pIC50 [1] of 5.19.

For O=C1Nc2ccccc2/C1=C1/Nc2ccc(C(=O)NC3CCN(C(=O)CCl)CC3)cc2C1=O, the pIC50 [1] was 5.74.

With O=C1Nc2ccccc2/C1=C1/Nc2ccc(C(=O)NCC3CCN(C(=O)CCl)CC3)cc2C1=O the solubility kinetic [2] was under 0.5 µg/mL, the Activity [6] was “Non-Toxic” and the Activity [7] was “Non-Toxic”. For the same compound, the inhibition [8] was “Active”, the inhibition [9] was “Active” and the inhibition [10] was “Tde”. For the same compound, the CLint scaled at 0.5 µM [3] was 95.5 mL/min/kg, the inhibition [11] was “Dose-Dependent Effect” and the inhibition [12] was “Dose-Dependent Effect”. The inhibition [13] was “inactive”, the Activity [14] was “Non-Toxic” and the Activity [15] was “Active”. For the same compound, the inhibition [16] was “Active”, the inhibition [17] was “inactive” and the Activity [18] was “inactive”. For the same compound, the Activity [19] was “Dose-Dependent Effect”, the inhibition [20] was “Active” and the Activity [21] was “Active”. The inhibition in vivo at 50 mg/kg [22] was 71.5%, the inhibition [23] was “Active” and the Activity [24] was “Dose-Dependent Effect”. The pIC50 [25] was 5.19, the Activity [26] was “inactive” and the Activity [27] was “Active”. The Activity [28] was “Dose-Dependent Effect”, the Activity [29] was “inactive” and the CLhep predicted at 0.5 µM [4] was 16.9 mL/min/kg. For the same compound, the Activity [30] was “Non-Toxic”, the Activity [31] was “Non-Toxic” and the inhibition in vivo at 25 mg/kg [32] was 63.4%. The pIC50 [1] was 6.31, the half-life at 0.5 µM [5] was 17.1 min and the Activity [33] was “Non-Toxic”. The Activity [34] was “inactive” and the inhibition [35] was “inactive”.

With C#CC(=O)N1CCC(c2ccc(NC(=O)c3ccc4c(c3)C(=O)/C(=C3/C(=O)Nc5ccccc53)N4)cc2)CC1 the pIC50 [1] was under 4.70.
